Experimental data taken from ChEMBL document CHEMBL2074070, “Circumvention of breast cancer resistance protein (BCRP)-mediated resistance to camptothecins in vitro using non-substrate drugs or the BCRP inhibitor GF120918” (Clin Cancer Res, 2001).
One block for each compound: values may come before it.

Columns and labels:
Format in all cases: functional, cell-based
[1] = target: T1, Broad substrate specificity ATP-binding cassette transporter ABCG2 (Homo sapiens, UniProt Q9UNQ0); assay: TP_TRANSPORTER: increase in Topotecan intracellular accumulation (Topotecan: 1.9 uM, GF120918: 2 uM) in T8 cells
T1 sequence (Q9UNQ0 whole entry): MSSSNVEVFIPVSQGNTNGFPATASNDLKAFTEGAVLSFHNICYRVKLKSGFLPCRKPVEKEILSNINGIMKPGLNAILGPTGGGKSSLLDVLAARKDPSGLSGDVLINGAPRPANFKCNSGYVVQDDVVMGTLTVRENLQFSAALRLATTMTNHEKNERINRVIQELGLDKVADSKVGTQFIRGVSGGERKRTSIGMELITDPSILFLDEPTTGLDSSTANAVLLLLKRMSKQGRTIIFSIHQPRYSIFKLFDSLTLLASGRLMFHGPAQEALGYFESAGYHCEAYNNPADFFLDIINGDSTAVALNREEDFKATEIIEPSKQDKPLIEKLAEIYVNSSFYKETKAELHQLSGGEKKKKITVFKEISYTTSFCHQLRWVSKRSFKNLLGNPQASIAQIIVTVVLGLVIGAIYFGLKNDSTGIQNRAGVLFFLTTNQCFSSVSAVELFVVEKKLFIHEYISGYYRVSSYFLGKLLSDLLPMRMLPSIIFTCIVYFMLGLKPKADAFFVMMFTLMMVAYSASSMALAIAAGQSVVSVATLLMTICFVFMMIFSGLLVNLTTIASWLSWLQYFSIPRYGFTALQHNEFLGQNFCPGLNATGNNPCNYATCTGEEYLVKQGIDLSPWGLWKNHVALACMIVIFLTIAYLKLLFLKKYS

[2] = target: T1, Broad substrate specificity ATP-binding cassette transporter ABCG2; assay: TP_TRANSPORTER: increase in Topotecan intracellular accumulation (Topotecan: 1.9 uM, GF120918: 2 uM) in MX3 cells
[3] = target: T1, Broad substrate specificity ATP-binding cassette transporter ABCG2; assay: TP_TRANSPORTER: increase of cytotoxicity by GF120918 in T8 cells
[4] = target: T1, Broad substrate specificity ATP-binding cassette transporter ABCG2; assay: TP_TRANSPORTER: increase of cytotoxicity by GF120918 in MX3 cells
[5] = target: T1, Broad substrate specificity ATP-binding cassette transporter ABCG2; assay: TP_TRANSPORTER: increase in intracellular accumulation by GF120918 in T8 cell

Activity [1]: inhibitor [+] | Activity [2]: inhibitor [+]
SMILES: COc1cc2c(cc1OC)CN(CCc1ccc(NC(=O)c3cccc4c(=O)c5cccc(OC)c5[nH]c34)cc1)CC2.Cl [ELACRIDAR HYDROCHLORIDE]

SMILES: CC[C@@]1(O)C(=O)OCc2c1cc1n(c2=O)Cc2c-1nc1cc(F)c(C)c3c1c2[C@@H](N)CC3 [EXATECAN]
Activity [3]: substrate [] | Activity [4]: substrate []

Activity [5]: substrate [+]
SMILES: CC[C@@]1(O)C(=O)OCc2c1cc1n(c2=O)Cc2cc3c(CN(C)C)c(O)ccc3nc2-1 [TOPOTECAN]
